# According to patent publication US20170266292A1, “LIPIDIC COMPOUND-TELODENDRIMER HYBRID NANOPARTICLES AND METHODS OF MAKING AND USES THEREOF” (The Research Foundation for The State University of New York, priority 2016, published 2017):
# Tests used:
# [1] = Protein release from agarose gels (0.6% wt); type: physicochemical; conditions: FITC-BSA from agarose gels (0.6% wt) immersed in PBS
# Description: Protein Release from Agarose Gels. Free FITC-BSA and FITC-BSA-incorporated lipidoid-telodendrimer hybrid nanoparticles (1/10, FITC-BSA/nanoparticle, w/w) were loaded in agarose gels of a concentration of 0.6% wt. The sample-loaded agarose gels were immersed in PBS (1×) with shaking for protein release assays. The concentration of released FITC-BSA at various time points was measured by fluorescence spectroscopy employing a pre-established calibration equation. The release medium was replaced with fresh medium. The accumulated protein release was reported as the means for each triplicate sample.
# HT-29 cells = test: Cellular uptake of protein-incorporated nanoparticles, HT-29 cells; type: cell-based, human; conditions: 2 h at 37° C., FITC approx. 1 μg/mL
# Description: (§1) Cellular Uptake of Protein-Incorporated Nanoparticles. The cellular uptake and intracellular trafficking of the protein-incorporated nanoparticles were determined by fluorescence microscopy. FITC-BSA was used as a model protein. HT-29 and U87 cells were seeded in chamber slide with a density of 5×10^4 cells per well in 350 μL of McCoy's 5 A and cultured for 24 h. The original medium was replaced with free FITC-BSA and FITC-BSA-loaded nanoparticles at final FITC a concentration of 1 or 3 μg/mL at 37° C. After a 2 h incubation, the cells were washed three times with cold PBS (1×) and fixed with 4% formaldehyde for 10 min at room temperature, and the cell nuclei were stained with DAPI. The slides were mounted with cover slips and cells were imaged with a Leica fluorescence microscope or a Nikon FV1000 laser scanning confocal scanning microscope. The mean fluorescence density in cells (unit: pixel^−1) was calculated using the following equation: […]
# U87 cells [2] = test: Cellular uptake of protein-incorporated nanoparticles, U87 cells; type: cell-based, human; conditions: 2 h at 37° C.
# Description: as §1
# [3] = system: orthotopic human U87 GBM tumors; test: Intracranial distribution of proteins after CED; type: in vivo, mouse; conditions: one day after CED; protein/NP 1/10; confocal microscopy
# Description: Intracranial Orthotopic GBM Tumor Model. Female athymic nude mice (NCRNU-Sp/Sp), 6-7 weeks age, were purchased from Taconic Biosciences (Germantown, N.Y.). All animals were kept under pathogen-free conditions according to Association for Assessment and Accreditation of Laboratory Animal Care (AAALAC) guidelines and were allowed to acclimatize for at least 4 days prior to any experiments. All animal experiments were performed in compliance with institutional guidelines and according to protocol approved by the Committee for the Humane Use of Animals of State University of New York Upstate Medical University. Athymic nude mice were anesthetized with ketamine/xylazine (80 mg/kg: 5 mg/kg) through an intraperitoneal injection. The mice were then placed in a stereotactic head frame. Using aseptic technique, a midline skin incision was made a 0.5 mm anterior to bregma and 2.5 mm lateral of midline, a burr hole will be placed. A 25G needle delivered U87 (GBM) tumor cells 3.2 mm deep via the stereotactic head frame. Approximately 5×10^4 cells (in 1 μL of PBS) will be injected. This injection will occur over the course of 5 minutes. […]
# CED Administration of Protein Formulations. […] For bioluminescence image analysis, the associated bioluminescence intensities were determined by Living Image software (Caliper Life Sciences) using operator-defined regions of interest (ROI) measurements.
# [4] = Zeta potential of lipidoid-telodendrimer hybrid NPs; type: physicochemical; conditions: lipidoid alone
# Description: (§2) Formulation of Lipidoid-Telodendrimer Nanoparticles. Nanoparticles were formed by mixing lipidoids and/or telodendrimers at required mass ratios in a solution of 90% ethanol and 10% 10 mM sodium citrate (by volume). Particle solutions were diluted with 10 times volume of phosphate buffered saline (PBS, 1×), and dialyzed against PBS (1×) for 4 h. The particle solution was then mixed with proteins at a ratio of 1/10 (protein/nanoparticle, w/w) to form nanoparticle-protein complex. The complex solution was then stored in sealed vessels at 4° C. for 1 day before use. For Mcl-1 inhibitor-loaded nanoparticle preparation, the Mcl-1 inhibitor, lipidoids and telodendrimers were in a solution of 90% ethanol and 10% 10 mM sodium citrate (by volume). Particle solutions were diluted with 10 times volume of PBS, yielding Mcl-1 inhibitor-loaded lipidoid-telodendrimer nanoparticles.
# (§3) Characterization. Proton NMR spectrum was recorded on a Bruker AVANCE 600 MHz spectrometer. MALDI-TOF mass spectrum was recorded on a Bruker REFLEX-III instrument. Dynamic light scattering (DLS) studies were performed using a Zetatrac (Microtrac Inc.) instrument, and the area-based mean particle sizes were presented. Zeta potential measurements were carried out on a Malvern Nano-ZS zetasizer at room temperature. […] UV-vis spectra were recorded on a Thermo Scientific Nanodrop 2000c spectrophotometer.
# U87 cells [5] = test: MTS cell viability assay on U87 cells; type: cell-based, human; conditions: 72 h continuous incubation
# Description: Cell Culture and MTS Assays. The human glioblastoma multiforme (GBM) cell lines U87 and LN229, as well as the colon cancer cell line HT-29 cell line were purchased from American Type Culture Collection (ATCC, Manassas, Va., U.S.A.). U138 cell line established from human patients diagnosed with GBM. All cells were cultured in McCoy's 5 A medium supplemented with 10% fetal bovine serum (FBS), 100 U/mL penicillin G, and […] streptomycin at 37° C. using a humidified 5% CO2 incubator. Various formulations of proteins with different dilutions were added to the plate and then incubated in a humidified 37° C., 5% CO2 incubator. After a 72 h continuous incubation, a mixture solution composed of CellTiter 96 AQueous MTS, and an electron coupling reagent, PMS, was added to each well according to the manufacturer's instructions. The cell viability was determined by measuring absorbance at 490 nm using a microplate reader (BioTek Synergy 2). Untreated cells served as the control. Results were shown as the average cell viability [100%×(ODtreat−ODblank)/(ODcontrol−ODblank)] of triplicate wells. The cells were also treated with blank nanoparticles in PBS (1×) and blank lipidoids in a mixture of cremophor/ethanol (v:v=1:1) with different dilutions and incubated for a total of 72 h to evaluate nanoparticle-related toxicity.
# [6] = DLS hydrodynamic diameter of lipidoid-telodendrimer hybrid NPs; type: physicochemical; conditions: lipidoid alone
# Description: as §2, §3
compound,measurement,setting,value
"free FITC-BSA: fluorescein isothiocyanate (FITC) labeled BSA, model protein",time within which ~50% of the proteins released,[1],≤ 2 h
same,"cellular uptake efficiency (semi-quantitative, mean fluorescence intensity)",HT-29 cells,closes to zero
same,"cellular uptake efficiency (semi-quantitative, mean fluorescence intensity)",U87 cells [2]; FITC approx. 1 μg/mL,closes to zero
same,cellular uptake (confocal laser fluorescence microscopy),U87 cells [2]; FITC approx. 3 μg/mL,very low
"free Cy5-BSA: near-infrared fluorescence dye-labeled BSA (Cy5-BSA), model protein",distribution in brain sections containing U87 tumors (fluorescence),[3],no obvious fluorescent signals
"CCCCCCCCCCCCCCC(O)CN(C)CCCN(C)CC(O)CCCCCCCCCCCCCC (centres unmarked) [lipidoid, 1,1′-(propane-1,3-diylbis(methylazanediyl))bis(hexadecan-2-ol)]",ζ-potential of lipidoid NPs,[4],+8 mV
same,cytotoxicity of blank nanoparticles / lipidoid,U87 cells [5],toxicity was observed
same,particle size of lipidoid NPs,[6],~129 nm
